{"source": "patent US8062669B2", "about": "“Vectorization system comprising nanoparticles of homogenous size of at least one polymer and at least one positively charged polysaccharide and method for the preparation thereof” (Bioalliance Pharma, priority 2002, dated 2011)", "data": [{"smiles": "CCCCCCCCCCCCCCCC[N+](C)(C)C.[Br-]", "note": "[CTAB, cetyl trimethyl ammonium bromide]", "values": [{"measurement": "toxicity", "setting": "NIH 3T3 cells", "result": "notable toxicity"}, {"measurement": "toxicity", "setting": "NIH 3T3 EWS-Fli1 cells", "result": "notable toxicity"}, {"measurement": "toxicity", "setting": "IW35 cells", "result": "elevated toxicity at low concentrations"}, {"measurement": "toxicity", "setting": "CEM 4FX cells", "result": "elevated toxicity at low concentrations"}]}]}
